Results reported in patent US20150346599A1, “PHOTO-DESTROYABLE QUENCHER AND ASSOCIATED PHOTORESIST COMPOSITION, AND DEVICE-FORMING METHOD” (Rohm and Haas Electronic Materials LLC, priority 2014, published 2015).

What was measured:
[1] = Water absorption (hygroscopicity): water weight gain of the solid; assay type: physicochemical; settings: for Weight Gain relative to Reference (%): 1 millimole solid in open vial in 4 liter vessel with 100 milliliters exposed water, 18 hours, reference triphenylsulfonium camphorsulfonate; for Matter State After Exposure to Water: after 18 hours exposure to water vapour
Description: Compounds that absorb atmospheric moisture may cause inaccurate amount additions into formulations and are also difficult to handle. […] To quantify this characteristic, 1 millimole of each solid was placed in an open vial and enclosed in a 4 liter vessel containing 100 milliliters of exposed water. The weight of each vial was prerecorded and reweighed 18 hours later to determine the water weight gain.

[2] = Shelf life testing: compound stability in solution by 1H NMR peak integration; settings: 100 millimolar in deuterated dimethylsulfoxide; for Compound Purity (%) 0 days / Compound Purity (%) 3 days / Compound Purity (%) 14 days: 1H NMR at 25° C.
Description: Compound stability was monitored by peak integration using ^1H NMR at 25° C. with relaxation delay set to 5 seconds on a 300 Megahertz Varian NMR spectrometer. Compound purity was calculated using the following formula: 100−((sum impurity peaks)/((total impurity peaks)+(total purity peaks))*100).

Compound	Weight Gain relative to Reference (%) [1]	Matter State After Exposure to Water [1]	Matter State Before Exposure to Water [1]	Hygroscopicity (in words) [1]	Compound Purity (%) 0 days [2]	Compound Purity (%) 3 days [2]	Compound Purity (%) 14 days [2]	Compound stability (in words) ([2]; up to 14 days)
5-(4-(tert-Butyl)phenyl)-5H-dibenzo[b,d]thiophen-5-ium 2,3,4,5,6-pentafluorophenolate [Example 5]	−29%	Solid	Solid	–	–	–	–	–
5-Phenyl-5H-dibenzo[b,d]thiophen-5-ium 2,3,4,5,6-pentafluorophenolate [Example 2]	43%	Solid	Solid	hygroscopic	–	–	–	–
5-Phenyl-5H-dibenzo[b,d]thiophen-5-ium 2,3,5,6-tetrafluorophenolate [Example 3]	29%	Solid	Solid	–	–	–	–	–
5-Phenyl-5H-dibenzo[b,d]thiophen-5-ium 3,5-bis(trifluoromethyl)-phenolate [Example 4]	−14%	Solid	Solid	–	–	–	–	–
Cc1cc(-[s+]2c3ccccc3c3ccccc32)cc(C)c1OCC(=O)OC1(C)C2CC3CC(C2)CC1C3.[O-]c1c(F)c(F)c(F)c(F)c1F [Example 6, 5-(3,5-Dimethyl-4-(2-(((1R,3S,5r,7r)-2-methyladamantant-2-yl)oxy)-2-oxoethoxy)phenyl)-5H-dibenzo[b,d]thiophen-5-ium 2,3,4,5,6-pentafluorophenolate]	−43%	–	Solid	–	–	–	–	–
Triphenylsulfonium pentafluorophenolate [Example 1]	29%	–	Solid	–	100%	100%	100%	substantially more stable than triphenylsulfonium phenolate
triphenylsulfonium camphorsulfonate [reference compound]	–	Solid	Solid	–	100%	100%	100%	–
